This assay has as its target T1, REV-ERBα (Homo sapiens, UniProt P20393).
T1 sequence (P20393 1-614): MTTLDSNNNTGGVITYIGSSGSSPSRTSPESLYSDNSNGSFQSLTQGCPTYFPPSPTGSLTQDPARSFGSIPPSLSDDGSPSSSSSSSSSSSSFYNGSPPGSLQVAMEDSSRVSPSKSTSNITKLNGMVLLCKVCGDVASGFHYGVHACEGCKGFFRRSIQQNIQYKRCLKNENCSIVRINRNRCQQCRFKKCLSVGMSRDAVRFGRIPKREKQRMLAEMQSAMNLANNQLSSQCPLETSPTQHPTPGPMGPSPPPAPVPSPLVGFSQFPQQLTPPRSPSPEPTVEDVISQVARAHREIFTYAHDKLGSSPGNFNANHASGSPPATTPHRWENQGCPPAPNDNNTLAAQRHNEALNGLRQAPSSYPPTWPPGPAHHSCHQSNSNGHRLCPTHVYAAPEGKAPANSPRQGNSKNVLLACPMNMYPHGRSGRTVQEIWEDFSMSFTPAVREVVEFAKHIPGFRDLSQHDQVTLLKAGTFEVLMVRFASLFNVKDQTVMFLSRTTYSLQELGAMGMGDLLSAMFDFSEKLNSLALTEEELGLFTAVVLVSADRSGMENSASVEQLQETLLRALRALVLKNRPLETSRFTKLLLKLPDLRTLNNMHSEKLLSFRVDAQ
The assay can be described thus: cotransfection Il17a+CNS5 luciferase reporter assay in HEK293 cells. In kind it is cell-based.

Turning to `CCOC(=O)N1CCC(CN(Cc2ccc(Cl)cc2)Cc2ccc([N+](=O)[O-])s2)C1` (stereo not shown) [SR9009], the “cotransfection Il17a+CNS5 luciferase reporter assay in HEK293 cells” value is “Both SR9009 and SR12418 dose-dependently inhibited Il17a lucif-erase activity at REV-ERBα and REV-ERBβ”.

Source of the values: paper PMC6400287 (Cell reports, 2018).
